Entries after “also recorded” stand apart in the source; their conditions may differ.
Assays:
Format in all cases: physicochemical
[1] = 1H and 19F NMR determination of LiTFSI concentration in the TEGDME and NFTTS layers; conditions: TEGDME/NFTTS biphasic system after salt-out
Method: Physicochemical characterizations. The UV-visible absorption spectra were collected on a UV-visible spectrophotometer (Agilent Technologies, Cary 8454 UV-Vis). To perform UV-visible measurements, dilute samples with concentrations below 5 mM were prepared. To achieve this, highly concentrated samples were diluted in an appropriate electrolyte solvent before conducting the UV-visible measurements. A blank sample containing no redox materials was prepared to measure the UV-visible spectrum. The ^1H and ^19F NMR spectra were recorded on a Bruker AV400 spectrometer (400 MHz). The chemical shifts were reported in ppm. To measure the concentration of LiTFSI in TEGDME and NFTTS layers of the biphasic system, a sample of 10 μL volume was collected from each layer and mixed with 400 μL of CDCl3 for preparing the NMR samples. ^1H NMR spectra were first recorded using these samples, and 50 μL of TBAPF6, as an internal standard, was then added to those samples before performing ^19F NMR.
For Design-I, because the gravimetric densities of the solvents followed the sequence TEGDME<NFTTS<FEC, TEGDME was used as the anolyte for the top layer, NFTTS as the ion-exchange layer in the middle, and FEC as the catholyte in the bottom layer. […] This property poses a challenge in constructing a stable triphasic system with the desired immiscibility between the layers. […]

[2] = Solubility test in 1.5 M LiClO4/FEC; conditions: average of repeated tests
Method: (§1) Solubility test. A solution of 1.5 M LiClO4/FEC was used for the solubility measurements. The solution was gradually added to a vial containing known amounts of the organic compounds used as the catholytes (Tri-TEMPO, C3-PTZ, and CP). Once a clear solution was obtained, the volume of the electrolyte was determined using an analytical pipette. The solubilities of the organic compounds were calculated from the ratio of the molar amount to the electrolyte volume. These steps were repeated twice, and the average values are presented.
as §1, with “processes” for “steps”
Solubility Test. A solution of FEC/LiClO4 (1.5 M) was used for the solubility measurements under an inert argon atmosphere at a temperature of 27° C. The solution was gradually added to a vial containing known amounts of the organic compounds used as the catholytes (Tri-TEMPO, C3-PTZ, and CP). Once a clear solution was obtained, the volume (50 μL) of the electrolyte was determined using an analytical pipette (P20). The solubilities of the organic compounds were calculated from the ratio of the molar amount to the electrolyte volume. These processes were repeated twice, and the average values are presented.

[3] = Screening of cathode materials: solubilities in both phases of the FEC/BMP-TFSI nonaqueous biphasic system; conditions: for solubility in FEC (catholyte): FEC / cathode electrolyte FEC/LiClO4; for affinity towards the anolyte: anode electrolyte BMP-TFSI/LiTFSI
Method: (§2) To explore catholyte materials that meet these solubility requirements, eleven organic compounds were selected, and their solubilities in both phases of the NBS were tested. These materials included derivatives of phenothiazine, cyclopropenium, 2,2,6,6-tetramethylpiperidinyloxy (TEMPO), anthraquinone (AQ), and ferrocene (FIG. 9).
as §2, with “cyclopropenium” for “cyclopropenium,”, “33). […] The solubilities of Tri-TEMPO, C3-PTZ, and CP in 1.5 M FEC/LiClO4 were ~1.2 M, ~1 M, and 1.8 M, respectively.” for “9).”
as §2, with “(FIGS. 33 and 102). […] The solubilities of Tri-TEMPO, C3-PTZ, and CP in […] (1.5 M) were ~1.2 M, ~1 M, and 1.8 M, respectively.” for “(FIG. 9).”

[4] = Crossover in the biphasic system under static conditions (UV-visible spectroscopy and CV); conditions: 15 days, 0.5 M redox material, FEC/BMP-TFSI biphasic system
Method: as §2
as §2, with “cyclopropenium” for “cyclopropenium,”, “33). […] The solubilities of Tri-TEMPO, C3-PTZ, and CP in 1.5 M FEC/LiClO4 were ~1.2 M, ~1 M, and 1.8 M, respectively.” for “9).”
as §2, with “(FIGS. 33 and 102). […] The solubilities of Tri-TEMPO, C3-PTZ, and CP in […] (1.5 M) were ~1.2 M, ~1 M, and 1.8 M, respectively.” for “(FIG. 9).”
Physiochemical Characterization. The UV-visible absorption spectra were recorded using a UV-visible spectrophotometer (Cary 8454 UV-Vis, Agilent Technologies). To perform UV-vis measurements, samples with concentrations below 5 mM were prepared. To achieve this, highly concentrated samples were diluted in an appropriate electrolyte solvent before conducting the UV-vis measurements. For the UV-vis calibration curve, stock solutions of Tri-TEMPO at concentrations of 0.3 M and 0.5 M were prepared in FEC/LiClO4 (1.5 M). These solutions were then further diluted to prepare solutions with concentrations of 1, 2, 3, 4, and 5 mM. In addition, a blank sample containing no redox materials was prepared to measure the UV-vis spectrum. The absorption intensity of the UV-vis spectra at different concentrations was used to construct the UV-vis calibration curve. […]

[5] = Cyclic voltammetry of redox-active cathode materials in 0.1 M LiClO4/FEC; conditions: for reversible redox couple potential: 5 mM in 0.1 M LiClO4/FEC; for electrochemical stability on repeated CV cycling: in 0.1 M LiClO4/FEC, 1st vs 2000th cycle at 200 mV/s; for ratio of cathodic peak current (ipc) and anodic peak current (ipa): scan rates 50-200 mV/s
Method: (§3) Electrochemical characterization. CV measurements were performed to evaluate the electrochemical properties of the redox-active materials (Tri-TEMPO, C3-PTZ, and CP) as well as the crossover of the redox-active materials before and after long-term battery cycling. For the CV measurements, 5 mM Tri-TEMPO, 5 mM C3-PTZ, and 5 mM CP solutions were prepared in 0.1 M LiClO4/FEC electrolyte. A 3-mm glassy carbon disk was used as the working electrode and was polished with 5-nm Al2O3 before the measurements. A piece of Pt wire (0.5 mm) was used as the counter electrode while a Ag/Ag^+ electrode was used as the reference electrode.
as §3, with “characterizations.” for “characterization.”, “mM of” for “mM”, “Tri-TEMPO,” for “Tri-TEMPO, 5 mM”, “and” for “and 5 mM”, “FEC/LiClO4” for “LiClO4/FEC”, “5 nm” for “5-nm”
Electrochemical Characterizations. For the CV measurements, 5 mM of Tri-TEMPO, C3-PTZ, and CP solutions were prepared in FEC/LiClO4 (0.1 M) electrolyte. A glassy carbon disk (CHI Instrument, 3 mm) was used as the working electrode and was polished with Al2O3(Pine Research Instrumentation, Inc., […]) before the measurements, where water was used as the solvent to polish the electrode. A piece of Pt wire (Pine Research Instrumentation, Inc., thickness 0.5 mm, purity 99.99%) was used as the counter electrode while an Ag/Ag+ (Fisher Scientific) electrode was used as the reference electrode. The CV measurements were performed using a Bio-Logic potentiostat. Electrochemical impedance spectroscopy (EIS) was performed using a potentiostatic signal spanning from 200 KHz to 100 mHz, with an amplitude of 10 mV. The measurements were conducted under open-circuit voltage (OCV) conditions for a total of 54 data points. The charge/discharge performances were evaluated using Land and Bio-Logic potentiostats.

[6] = 1H NMR stability of C3-PTZ and CP at room temperature and 60° C.; conditions: over 10 days at 25° C. and 60° C., CD3CN
Method: The ^1H NMR spectra were recorded on a Bruker AV400 spectrometer (400 MHz). The chemical shifts were reported in ppm. To determine if CP or C3PTZ had crossed through the biphasic layer, we extracted […] samples from anolyte before and after subjecting the system to extended charge/discharge cycles (~100 cycles). These […] samples were subjected to 1H NMR analysis by combining them with […] of CD3CN, resulting in a total NMR solvent volume of […]. In addition, we followed specific sample preparation procedures to assess the stability of CP and C3-PTZ using ^1H NMR. Approximately 5 mg of either solid CP or C3-PTZ was mixed with […] of CD3CN to create NMR samples. Two NMR samples were prepared for each compound in NMR tubes equipped with J. Young air-inlet valves. Firstly, we recorded ^1H NMR spectra for these NMR samples, after which we stored one NMR tube of each sample at room temperature while the other was placed at 60° C. Subsequently, we collected a series of ^1H NMR spectra at 24-h intervals for 10 days using these samples.

| solubility [2] | solubility in FEC (catholyte) [3] | affinity towards the anolyte [3] | crossover from catholyte to anolyte [4] | reversible redox couple potential [5] [V vs. Ag/Ag^+] | electrochemical stability on repeated CV cycling [5] | ratio of cathodic peak current (ipc) and anodic peak current (ipa) [5] | Compound | concentration of LiTFSI in the NFTTS phase [1] [M] | concentration of LiTFSI in the TEGDME phase [1] [M] | thermostability by 1H NMR [6] |
| --- | --- | --- | --- | --- | --- | --- | --- | --- | --- | --- |
|  |  |  |  |  |  |  | O=S(=O)([N-]S(=O)(=O)C(F)(F)F)C(F)(F)F.[Li+] [LiTFSI, lithium bis(trifluoromethanesulfonyl)imide] | 0.14 | 1 |  |
| ~ 1 M | high solubilities | extremely poor affinity | Negligible crossover | 0.33 | high cycling stability | ~1 | CCCN1c2ccccc2Sc2ccccc21 [C3-PTZ, N-propyl phenothiazine] |  |  | superior thermostability; also recorded: improved thermo-stability |
| 1.8 M | high solubilities | extremely poor affinity | Negligible crossover | 0.93 | high cycling stability | ~1 | CCCCN(CC)c1c(N(CC)CCCC)[c+]1N(CC)CCCC.F[P-](F)(F)(F)(F)F [CP, tris(dialkylamino)cyclo-propenium] |  |  | superior thermostability; also recorded: improved thermo-stability |
| ~ 1.2 M | high solubilities | extremely poor affinity | Negligible crossover | 0.37 | high cycling stability | ~1 | CC1(C)CC(Nc2nc(NC3CC(C)(C)N(OC4CCCCC4)C(C)(C)C3)nc(NC3CC(C)(C)N(OC4CCCCC4)C(C)(C)C3)n2)CC(C)(C)N1OC1CCCCC1 [Tri-TEMPO, 2,4,6-tri-(1-cyclohex-yloxy-4-imino-2,2,6,6-tetramethylpiperidine)-1,3,5-triazine] |  |  |  |

Source: patent US20260269287A1, “ALL-NONAQUEOUS MEMBRANE-FREE FLOW BATTERIES” (University of Cincinnati, priority 2023, published 2026)
